Laboratory results from patent US20180333538A1, “INJECTION APPARATUS” (Daicel Corporation, priority 2015, published 2018).
Where two headings read alike, the source gives them in different places.

Test system: intradermal layer which is skin tissue of the rabbit in vivo
Conditions: 100 μl intradermal
Method: Moreover, an object of the following experimental conditions is to confirm, when an inflammatory substance is injected to the intradermal layer which is skin tissue of the rabbit in vivo, a presence or absence of an inflammatory response (formation of erythema and eschar, and formation of edema) for each elapsed time (after 24 hours, 48 hours, and 72 hours) . In addition, the injection of an injection solution with the needled injector was performed at a constant pressurization rate.
16-week-old male Std: JW/CSK rabbit, already shaved and smooth skin-verified, was used.
An aqueous solution of the following inflammatory substance was used as the dosing liquid and the injection solution.
Inflammatory substance: acetic acid, diluted to a predetermined concentration with distilled water, dose 100 μl
Definitions of numerical values representing the experimental results in the tables with respect to each of erythema and eschar formation and edema formation are as follows.
1 Very slight erythema (barely perceptible erythema)
2 Slight erythema (clearly perceptible erythema)
3 Moderate to severe erythema
4 Severe erythema to eschar formations
1 Very slight edema (barely perceptible edema)
2 Slight edema (edema with edges perceptible due to definite raising)
3 Moderate edema (raised approximately 1 mm)
4 Severe edema (raised 1 mm or more and extending beyond the area of exposure)

[1] = Comparative example (needled injector), acetic acid 0.25%, 24 h
[2] = Comparative example (needled injector), acetic acid 0.25%, 48 h
[3] = Comparative example (needled injector), acetic acid 0.25%, 72 h
[4] = Comparative example (needled injector), acetic acid 0.5%, 24 h
[5] = Comparative example (needled injector), acetic acid 0.5%, 48 h
[6] = Comparative example (needled injector), acetic acid 0.5%, 72 h
[7] = Comparative example (needled injector), acetic acid 1.0%, 24 h
[8] = Comparative example (needled injector), acetic acid 1.0%, 48 h
[9] = Comparative example (needled injector), acetic acid 1.0%, 72 h
[10] = Comparative example (needled injector), acetic acid 1.5%, 24 h
[11] = Comparative example (needled injector), acetic acid 1.5%, 48 h
[12] = Comparative example (needled injector), acetic acid 1.5%, 72 h
[13] = Comparative example (needled injector), acetic acid 2.0%, 24 h
[14] = Comparative example (needled injector), acetic acid 2.0%, 48 h
[15] = Comparative example (needled injector), acetic acid 2.0%, 72 h
[16] = Injector 1, acetic acid 0.25%, 24 h
[17] = Injector 1, acetic acid 0.25%, 48 h
[18] = Injector 1, acetic acid 0.25%, 72 h
[19] = Injector 1, acetic acid 0.5%, 24 h
[20] = Injector 1, acetic acid 0.5%, 48 h
[21] = Injector 1, acetic acid 0.5%, 72 h
[22] = Injector 1, acetic acid 1.0%, 24 h
[23] = Injector 1, acetic acid 1.0%, 48 h
[24] = Injector 1, acetic acid 1.0%, 72 h
[25] = Injector 1, acetic acid 1.5%, 24 h
[26] = Injector 1, acetic acid 1.5%, 48 h
[27] = Injector 1, acetic acid 1.5%, 72 h
[28] = Injector 1, acetic acid 2.0%, 24 h
[29] = Injector 1, acetic acid 2.0%, 48 h
[30] = Injector 1, acetic acid 2.0%, 72 h

Edema [1]: 0 | Erythema etc. [1]: 1 | Edema [2]: 0 | Erythema etc. [2]: 1 | Edema [3]: 0 | Erythema etc. [3]: 1 | Edema [4]: 0 | Erythema etc. [4]: 1 | Edema [5]: 0 | Erythema etc. [5]: 1 | Edema [6]: 0 | Erythema etc. [6]: 1 | Edema [7]: 1 | Erythema etc. [7]: 1 | Edema [8]: 1 | Erythema etc. [8]: 1 | Edema [9]: 1 | Erythema etc. [9]: 1 | Edema [10]: 2 | Erythema etc. [10]: 1 | Edema [11]: 2 | Erythema etc. [11]: 1 | Edema [12]: 2 | Erythema etc. [12]: 1 | Edema [13]: 3 | Erythema etc. [13]: 1 | Edema [14]: 3 | Erythema etc. [14]: 1 | Edema [15]: 2 | Erythema etc. [15]: 1 | Edema [16]: 0 | Erythema etc. [16]: 1 | Edema [17]: 0 | Erythema etc. [17]: 1 | Edema [18]: 0 | Erythema etc. [18]: 1 | Edema [19]: 0 | Erythema etc. [19]: 1 | Edema [20]: 0 | Erythema etc. [20]: 1 | Edema [21]: 0 | Erythema etc. [21]: 1 | Edema [22]: 0 | Erythema etc. [22]: 1 | Edema [23]: 0 | Erythema etc. [23]: 1 | Edema [24]: 0 | Erythema etc. [24]: 1 | Edema [25]: 0 | Erythema etc. [25]: 1 | Edema [26]: 0 | Erythema etc. [26]: 1 | Edema [27]: 0 | Erythema etc. [27]: 1 | Edema [28]: 1 | Erythema etc. [28]: 1 | Edema [29]: 1 | Erythema etc. [29]: 1 | Edema [30]: 1 | Erythema etc. [30]: 1
SMILES: CC(=O)O [Acetic acid, acetic acid]
